Assay results from patent US9493436B2, “Tyrosine phosphatase inhibitors and uses thereof to modulate the activity of enzymes involved in the pathology of Mycobacterium tuberculosis” (priority 2011, dated 2016).

Legend:
[1] = target: SHP1-D1C (Homo sapiens, UniProt P29350); experiment: biochemical
[2] = target: T1, Lyp (Homo sapiens, UniProt Q9Y2R2); experiment: biochemical; format: biochemical
T1 sequence (Q9Y2R2 1-807): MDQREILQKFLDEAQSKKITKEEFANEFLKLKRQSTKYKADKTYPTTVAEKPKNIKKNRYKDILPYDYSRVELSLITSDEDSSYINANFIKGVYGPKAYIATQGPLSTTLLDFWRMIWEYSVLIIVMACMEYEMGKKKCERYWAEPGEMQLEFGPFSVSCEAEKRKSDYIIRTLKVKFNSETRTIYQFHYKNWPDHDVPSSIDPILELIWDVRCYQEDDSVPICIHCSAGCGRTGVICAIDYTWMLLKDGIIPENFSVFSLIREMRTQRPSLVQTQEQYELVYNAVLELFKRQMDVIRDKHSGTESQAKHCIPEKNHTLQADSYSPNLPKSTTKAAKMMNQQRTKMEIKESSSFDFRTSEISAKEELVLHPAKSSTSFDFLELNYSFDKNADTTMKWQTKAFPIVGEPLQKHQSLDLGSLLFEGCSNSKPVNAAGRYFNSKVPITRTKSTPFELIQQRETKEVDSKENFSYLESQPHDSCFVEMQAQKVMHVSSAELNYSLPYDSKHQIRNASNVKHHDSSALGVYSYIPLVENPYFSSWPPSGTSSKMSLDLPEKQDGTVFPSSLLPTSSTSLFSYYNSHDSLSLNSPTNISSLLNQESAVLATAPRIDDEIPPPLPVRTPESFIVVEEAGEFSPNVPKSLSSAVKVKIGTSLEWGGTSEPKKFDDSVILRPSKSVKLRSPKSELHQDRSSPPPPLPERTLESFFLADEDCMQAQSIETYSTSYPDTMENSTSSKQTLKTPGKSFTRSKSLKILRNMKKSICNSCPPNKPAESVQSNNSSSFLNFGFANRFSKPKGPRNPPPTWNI

[3] = target: SHP2-D2C (Homo sapiens, UniProt Q06124); experiment: biochemical; format: biochemical
[4] = tested on: Caspase 3 activity in macrophage cells expressing mPTPB; format: cell-based; details: especially at 120 and 240 nM
[5] = target: VHR (Homo sapiens, UniProt P51452); details: read-out: IC50 (μM) VHR
[6] = target: SHP2 (Homo sapiens, UniProt Q06124); details: read-out: IC50 (μM) SHP2
[7] = tested on: ERK1/2 phosphorylation in Raw264.7 cells expressing mPTPB; experiment: ERK phosphorylation in macrophage cells expressing mPTPB (western blot); format: cell-based, mouse; details: IFN-γ, L01Z08 especially at 120 and 240 nM
Experimental: As explained above, ERK phosphorylation is important in the cellular secretion pathway of IL-6. However, mPTPB blocks or inhibits the phosphorylation of ERK which reduces and potentially prevents IL-6 secretion altogether.
Raw264.7 mouse macrophages were cultured in Dulbecco's modified Eagle's medium (DMEM) supplemented with 10% FBS (Invitrogen), penicillin (50 units/mL), and streptomycin (50 μg/mL) under a humidified atmosphere containing 5% CO2 at 37° C. Transfected Raw264.7 cells (Vector, WT-mPTPB) were seeded in a 12-well plate at a density of 4×10^4 cells/well. The following day cells were treated with mPTPB inhibitor 213a for 1 hr, then stimulated with IFN-γ (200 U/ml) for 1 h. […]. Wash with ice-cold phosphate buffered saline, and lysed with lysis buffer on ice for 30 min. Cell lysate is then cleared by centrifuging at 13,000 rpm for 15 min. The phosphorylation of ERK1/2 and Akt was detected by western blotting.

[8] = target: T2, Cdc14A (Homo sapiens, UniProt Q9UNH5); experiment: PTP selectivity panel: Cdc14A; format: biochemical
T2 sequence (Q9UNH5 1-594): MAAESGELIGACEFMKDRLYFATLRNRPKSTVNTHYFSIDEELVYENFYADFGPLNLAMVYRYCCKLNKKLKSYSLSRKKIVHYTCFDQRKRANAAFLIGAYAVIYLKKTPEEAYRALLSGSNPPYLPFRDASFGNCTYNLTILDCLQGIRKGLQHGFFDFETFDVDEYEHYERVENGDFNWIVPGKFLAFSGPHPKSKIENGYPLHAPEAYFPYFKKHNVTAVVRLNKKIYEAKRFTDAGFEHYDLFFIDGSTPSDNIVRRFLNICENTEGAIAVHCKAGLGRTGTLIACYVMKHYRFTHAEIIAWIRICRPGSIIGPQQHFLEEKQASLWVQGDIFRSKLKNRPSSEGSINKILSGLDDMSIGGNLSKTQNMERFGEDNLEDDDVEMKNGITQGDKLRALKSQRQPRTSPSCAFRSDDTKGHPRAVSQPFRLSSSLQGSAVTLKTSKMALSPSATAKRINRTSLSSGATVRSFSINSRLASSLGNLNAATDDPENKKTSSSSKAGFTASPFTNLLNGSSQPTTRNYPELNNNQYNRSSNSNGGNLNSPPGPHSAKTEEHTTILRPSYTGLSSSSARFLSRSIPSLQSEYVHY

[9] = target: T3, TC-PTP (Homo sapiens, UniProt P17706); experiment: PTP selectivity panel: TC-PTP; format: biochemical; details: read-out: IC50 (μM) TC-PTP
T3 sequence (P17706 1-415): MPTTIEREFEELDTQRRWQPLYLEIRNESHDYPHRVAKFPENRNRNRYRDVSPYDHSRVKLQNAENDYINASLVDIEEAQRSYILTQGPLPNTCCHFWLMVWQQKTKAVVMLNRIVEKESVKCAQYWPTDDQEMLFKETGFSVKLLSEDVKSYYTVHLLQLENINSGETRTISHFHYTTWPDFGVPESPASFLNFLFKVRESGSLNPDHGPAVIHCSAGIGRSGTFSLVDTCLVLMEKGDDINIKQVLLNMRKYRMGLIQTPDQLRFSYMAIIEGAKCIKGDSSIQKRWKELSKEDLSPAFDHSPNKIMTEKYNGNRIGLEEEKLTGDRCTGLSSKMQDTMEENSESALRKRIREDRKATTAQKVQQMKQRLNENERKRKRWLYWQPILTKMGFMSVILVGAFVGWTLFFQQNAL

[10] = target: LMWPTP (Homo sapiens, UniProt P24666); experiment: PTP selectivity panel: LMWPTP; format: biochemical
[11] = tested on: Akt phosphorylation in Raw264.7 cells expressing mPTPB; format: cell-based, mouse; details: macrophage cells expressing mPTPB, increasing concentrations

VHR, sequence (P51452 whole entry, species assumed): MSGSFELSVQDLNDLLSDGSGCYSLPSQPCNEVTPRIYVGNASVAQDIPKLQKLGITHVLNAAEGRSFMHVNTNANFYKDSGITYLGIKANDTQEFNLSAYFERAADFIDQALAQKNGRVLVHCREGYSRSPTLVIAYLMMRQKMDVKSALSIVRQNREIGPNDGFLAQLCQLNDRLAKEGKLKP
SHP2-D2C, sequence (Q06124 224-528 limits assumed): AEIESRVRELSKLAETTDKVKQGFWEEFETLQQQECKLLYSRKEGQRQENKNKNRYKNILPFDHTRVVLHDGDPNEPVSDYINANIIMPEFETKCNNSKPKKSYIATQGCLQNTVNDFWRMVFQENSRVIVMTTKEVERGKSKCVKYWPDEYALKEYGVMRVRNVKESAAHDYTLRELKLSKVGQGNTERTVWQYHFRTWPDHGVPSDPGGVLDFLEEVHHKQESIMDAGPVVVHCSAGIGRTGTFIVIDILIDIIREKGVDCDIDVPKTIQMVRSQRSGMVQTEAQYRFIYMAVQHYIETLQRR
SHP2, sequence (Q06124 whole entry, species assumed): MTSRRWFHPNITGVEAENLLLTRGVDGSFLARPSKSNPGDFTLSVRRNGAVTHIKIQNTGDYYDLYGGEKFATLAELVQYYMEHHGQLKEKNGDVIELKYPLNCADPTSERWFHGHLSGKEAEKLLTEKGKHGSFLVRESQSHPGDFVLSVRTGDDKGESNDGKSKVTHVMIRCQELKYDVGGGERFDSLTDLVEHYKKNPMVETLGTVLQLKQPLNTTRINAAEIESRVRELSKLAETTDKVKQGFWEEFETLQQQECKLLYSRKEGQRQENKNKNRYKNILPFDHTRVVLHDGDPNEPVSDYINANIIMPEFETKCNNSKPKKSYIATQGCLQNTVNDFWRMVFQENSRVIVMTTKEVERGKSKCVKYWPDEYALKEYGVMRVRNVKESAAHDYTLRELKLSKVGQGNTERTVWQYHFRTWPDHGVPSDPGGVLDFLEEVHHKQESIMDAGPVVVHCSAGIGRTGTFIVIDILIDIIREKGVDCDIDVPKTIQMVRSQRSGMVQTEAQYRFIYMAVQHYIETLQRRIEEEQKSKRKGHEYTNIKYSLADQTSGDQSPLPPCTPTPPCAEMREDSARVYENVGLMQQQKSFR
LMWPTP, sequence (P24666 whole entry, species assumed): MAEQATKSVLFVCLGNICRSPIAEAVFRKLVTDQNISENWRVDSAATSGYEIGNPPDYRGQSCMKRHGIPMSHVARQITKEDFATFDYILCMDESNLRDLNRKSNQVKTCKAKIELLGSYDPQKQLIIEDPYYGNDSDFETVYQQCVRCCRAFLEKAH
SHP1-D1C, sequence (P29350 244-528 limits assumed): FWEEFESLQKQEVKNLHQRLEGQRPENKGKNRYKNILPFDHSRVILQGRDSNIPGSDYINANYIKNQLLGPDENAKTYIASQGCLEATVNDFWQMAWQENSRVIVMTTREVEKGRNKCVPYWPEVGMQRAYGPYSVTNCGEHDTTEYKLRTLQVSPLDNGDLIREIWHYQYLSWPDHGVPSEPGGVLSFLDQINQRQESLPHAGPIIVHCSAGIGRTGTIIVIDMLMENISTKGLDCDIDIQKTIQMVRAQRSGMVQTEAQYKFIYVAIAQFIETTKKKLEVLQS

Row | Structure (SMILES) | IC50 [1] | IC50 [2] | IC50 [3] | caspase 3 activity [4] | IC50 [5] | IC50 [6] | ERK phosphorylation / ERK1/2 activity [7] | IC50 [8] | IC50 [9] | IC50 [10] | AKT phosphorylation / Akt activation [11]
1 | Cn1c(-c2ccccc2C(F)(F)F)c(I)c2cc(C(=O)O)c(O)cc21 [Compound 207a, 6-hydroxy-3-iodo-1-methyl-2-(2-(trifluoromethyl)phenyl)-1H-indole-5-carboxylic acid] | 86.8 ± 0.4 µM | 75 ± 4 µM | 87 ± 4 µM | – | – | – | – | – | – | – | –
2 | O=C(O)c1cc2c(C#Cc3cccc(C(F)(F)F)c3)c(-c3ccccc3)oc2cc1O [32 (L01Z08)] | – | – | – | returns caspase 3 activity to near normal levels | 1.9 ± 0.4 µM | 1.8 ± 0.2 µM | normal or near normal levels | 6 ± 1 µM | 5.7 ± 0.4 µM | 4.3 ± 0.6 µM | phosphorylation decreasing with treatments of increasing concentrations
